Reference: patent US10745400B2, “Inhibition of BMP signaling, compounds, compositions and uses thereof” (Vanderbilt University, priority 2018, dated 2020)
Numbering of substitutions follows the chain as printed.

Columns and labels:
[1] = tested on: BMP-responsive C2C12 mouse myoblast cells stimulated with BMP4; assay: BMP4 cell assay (Id1 promoter-firefly luciferase reporter); type: cell-based; settings: Mus musculus, C2C12, C2C12 cells, BMP4 50 ng/mL, overnight
Method: The BMP4 cell assay were carried out briefly as follows. Stably transfected BMP-responsive C2C12 mouse myoblast cells (containing the Idl promoter-firefly luciferase reporter) were seeded in 96-well plates and incubated overnight with the compounds and BMP4 (50 ng/mL). The cells were then lysed, and cell extracts were then subjected to the firefly luciferase assay using Steady-Glo luciferase assay kit (Promega). The results were normalized to cell titers, as measured using Cell Titer-Glo luminescence assay (Promega). […] Relative activity was quantified by the ratio of firefly to Renilla luciferase activities using the dual luciferase assay kit (Promega).

Protein binding, human = type: in vitro ADME
Protein binding, mouse = type: in vitro ADME
[2] = Intrinsic clearance, mouse; type: in vitro ADME; settings: mouse
[3] = Intrinsic clearance, human; type: in vitro ADME; settings: human
ALK2/ACVR1 = biological target: T1, ALK2/ACVR1 (Homo sapiens, UniProt Q04771); assay: Kinase assay (33P-ATP filter-binding), ALK2; type: biochemical; settings: 20 mM; read-out: Kinase Selectivity ALK2/ACVR1 (20 mM)
T1 sequence (Q04771 21-509): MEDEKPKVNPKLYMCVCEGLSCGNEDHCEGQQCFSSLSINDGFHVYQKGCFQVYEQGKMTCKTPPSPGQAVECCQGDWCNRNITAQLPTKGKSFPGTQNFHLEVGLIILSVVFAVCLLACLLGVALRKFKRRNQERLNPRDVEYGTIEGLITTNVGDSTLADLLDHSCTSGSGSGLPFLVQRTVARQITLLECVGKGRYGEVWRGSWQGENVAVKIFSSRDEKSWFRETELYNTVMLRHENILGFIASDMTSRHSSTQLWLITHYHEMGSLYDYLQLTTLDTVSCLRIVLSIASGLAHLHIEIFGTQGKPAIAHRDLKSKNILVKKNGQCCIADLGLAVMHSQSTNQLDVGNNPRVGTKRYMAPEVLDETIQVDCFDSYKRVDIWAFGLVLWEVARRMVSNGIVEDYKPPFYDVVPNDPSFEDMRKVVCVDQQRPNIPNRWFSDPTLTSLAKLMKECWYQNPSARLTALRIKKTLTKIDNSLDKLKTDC
Method: (§1) The kinase assays were carried out briefly as follows. Substrate was prepared in Base Reaction Buffer (20 mM Hepes (pH 7.5), 10 mM MgCl2, 1 mM EGTA, 0.02% Brij35, 0.02 mg/ml BSA, 0.1 mM Na3VO4, 2 mM DTT, 1% DMSO). The indicated kinases was delivered into the substrate solution and allowed to gently mix. Next, the specific compound was delivered in DMSO into the kinase mixture by Acoustic technology (Echo550; nanoliter range), and allowed to incubate for 20 minutes at room temperature. Next, ^33P-ATP was delivered into the reaction mixture to initiate the reaction and allowed to incubate at room temperature. After 2 hours, the reactions were spotted onto P81 ion exchange paper and the kinase activity is detected by the filter-binding method.

ALK3/BMPR1A = ALK3/BMPR1A (Homo sapiens, UniProt P36894); assay: Kinase assay (33P-ATP filter-binding), ALK3; type: biochemical; settings: 1 mM; read-out: Kinase Selectivity ALK3/BMPR1A (1 mM)
Sequence of ALK3/BMPR1A (P36894 24-532): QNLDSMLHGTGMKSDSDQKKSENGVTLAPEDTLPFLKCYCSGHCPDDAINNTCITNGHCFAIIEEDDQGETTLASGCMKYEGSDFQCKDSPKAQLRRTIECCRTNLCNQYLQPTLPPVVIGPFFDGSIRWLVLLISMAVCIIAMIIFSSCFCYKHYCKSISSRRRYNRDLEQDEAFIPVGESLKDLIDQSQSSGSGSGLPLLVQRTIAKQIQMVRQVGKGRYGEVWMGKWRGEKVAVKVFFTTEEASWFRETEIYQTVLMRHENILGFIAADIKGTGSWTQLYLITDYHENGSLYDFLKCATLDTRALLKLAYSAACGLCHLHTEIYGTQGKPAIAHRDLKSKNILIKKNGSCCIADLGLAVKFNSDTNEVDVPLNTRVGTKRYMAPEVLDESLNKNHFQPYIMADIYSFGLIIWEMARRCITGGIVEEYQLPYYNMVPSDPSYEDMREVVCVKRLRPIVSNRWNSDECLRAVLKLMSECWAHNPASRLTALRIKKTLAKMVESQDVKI
Method: as §1

ALK1/ACVRL1 = ALK1/ACVRL1 (Homo sapiens, UniProt P37023); assay: Kinase assay (33P-ATP filter-binding), ALK1; type: biochemical; settings: read-out: Kinase Selectivity ALK1/ACVRL1
Sequence of ALK1/ACVRL1 (P37023 22-503): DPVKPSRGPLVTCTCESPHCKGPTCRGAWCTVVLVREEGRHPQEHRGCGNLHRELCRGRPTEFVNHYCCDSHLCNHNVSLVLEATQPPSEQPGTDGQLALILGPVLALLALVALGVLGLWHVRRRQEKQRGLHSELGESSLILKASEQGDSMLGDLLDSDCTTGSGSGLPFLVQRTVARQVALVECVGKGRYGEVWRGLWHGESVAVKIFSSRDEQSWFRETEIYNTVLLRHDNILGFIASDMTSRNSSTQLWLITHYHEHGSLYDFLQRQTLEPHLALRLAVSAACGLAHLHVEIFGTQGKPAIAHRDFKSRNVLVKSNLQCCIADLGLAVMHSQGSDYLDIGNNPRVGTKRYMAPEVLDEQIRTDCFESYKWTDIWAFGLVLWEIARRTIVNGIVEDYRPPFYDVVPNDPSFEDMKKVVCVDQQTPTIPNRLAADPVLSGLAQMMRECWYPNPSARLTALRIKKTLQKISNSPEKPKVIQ
Method: as §1

ALK2 (R206H) = biological target: T2, ALK2 (R206H) (Homo sapiens, UniProt Q04771, R206H); assay: Kinase assay (33P-ATP filter-binding), ALK2 R206H; type: biochemical; settings: R206H mutant, 20 mM; read-out: Kinase Selectivity ALK2 (R206H, 20 mM)
T2 sequence (Q04771 21-509 R206H): T1 sequence (Q04771 21-509) with R186H
Method: as §1

ALK2 (Q207D) = biological target: T3, ALK2 (Q207D) (Homo sapiens, UniProt Q04771, Q207D); assay: Kinase assay (33P-ATP filter-binding), ALK2 Q207D; type: biochemical; settings: Q207D mutant, 20 mM; read-out: Kinase Selectivity ALK2 (Q207D, 20 mM)
T3 sequence (Q04771 21-509 Q207D): T1 sequence (Q04771 21-509) with Q187D
Method: as §1

[4] = CL-Hep, value in parentheses, read-out: Intrinsic Clearance Mouse (CL-Hep)
[5] = read-out: Intrinsic Clearance Mouse
[6] = CL-Hep, value in parentheses, read-out: Intrinsic Clearance Human (CL-Hep)
[7] = read-out: Intrinsic Clearance Human

Structure (SMILES) | IC50 [1] | Protein Binding (% Free) Human (Protein binding, human) | Protein Binding (% Free) Mouse (Protein binding, mouse) | CLint scaled [2, 4] | CLint scaled [2, 5] | CLint scaled [3, 6] | CLint scaled [3, 7] | IC50 (ALK2/ACVR1) | IC50 (ALK3/BMPR1A) | IC50 (ALK1/ACVRL1) | IC50 (ALK2 (R206H)) | IC50 (ALK2 (Q207D))
Cc1cc(-c2cnc3cc(-c4ccc(C5CNCCN5)cc4)ccn23)c2ccccc2n1 (stereo not drawn) [Compound 12] | 13.5 nM | 13.6 % Free | 4.94 % Free | < 32.9 mL/min/kg | < 49.5 mL/min/kg | < 10.7 mL/min/kg | < 23.1 mL/min/kg |  |  |  |  | 
Cc1cc(-c2cnc3cc(-c4ccc(N5CCC6(CCCCN6)CC5)cc4)ccn23)c2cc(F)cc(F)c2n1 [Compound 25] |  | 1.43 % Free | 0.55 % Free | 97.8 mL/min/kg | 198 mL/min/kg | 14 mL/min/kg | 46.3 mL/min/kg | 55.5 nM | 54.7 nM | 777 nM | 258 nM | 170 nM
c1cnc2scc(-c3cnc4cc(-c5ccc(C6CNCCN6)cc5)ccn34)c2c1 (stereo not drawn) [Compound 31] |  | 16.2 % Free | 6.8 % Free | 33.6 mL/min/kg | 53.5 mL/min/kg | < 11 mL/min/kg | < 23.1 mL/min/kg | 20.1 nM | 21.2 nM | 30.7 nM | 20.6 nM | < 5.1 nM

Continued by falling IC50 (ALK2/ACVR1), values first:

IC50 [1] | Protein Binding (% Free) Human (Protein binding, human) | Protein Binding (% Free) Mouse (Protein binding, mouse) | CLint scaled [2, 4] | CLint scaled [2, 5] | CLint scaled [3, 6] | CLint scaled [3, 7] | IC50 (ALK2/ACVR1) | IC50 (ALK3/BMPR1A) | IC50 (ALK1/ACVRL1) | IC50 (ALK2 (R206H)) | IC50 (ALK2 (Q207D)) | Structure (SMILES)
 | 0.61 % Free | 1.03 % Free | 47.1 mL/min/kg | 99 mL/min/kg | < 10.7 mL/min/kg | < 23.1 mL/min/kg | 14.9 nM | 5.7 nM | 330 nM | 79.3 nM | 69.7 nM | Cc1cc(-c2cnc3cc(-c4ccc(N5CCNC(C)(C)C5)cc4)ccn23)c2cc(F)cc(F)c2n1 [Compound 26]
 | 39.4 % Free | 21.2 % Free | < 31.9 mL/min/kg | < 49.5 mL/min/kg | 12.3 mL/min/kg | 29.6 mL/min/kg | 6.2 nM | < 5.1 nM | 16.9 nM | 7.5 nM | < 5.1 nM | c1cnc2c(-c3cnc4cc(-c5ccc(C6CNCCN6)cc5)ccn34)ccnc2c1 (stereo not drawn) [Compound 34]
